# Literature values, collected in patent publication US9694043B2, “Composition for preventing or treating hearing loss” (UNIVERSITY-INDUSTRY COOPERATION GROUP OF KYUNG HEE …, priority 2011, dated 2017).
# Tests used:
# soldiers = settings: 600 U.S. navy soldiers, NAC for 2 weeks during weapons training
# animal model = settings: high level of NAC
smiles,measurement,setting,value
"CC(=O)N[C@@H](CS)C(=O)O [NAC, N-acetyl cysteine]",Permanent hearing loss,soldiers,decrease in permanent hearing loss
same,Effect on noise-induced hearing loss in animal model,animal model,preventive effects on noise-induced hearing loss but limited effects on permanent hearing loss
